The source made the active and inactive calls. The calls are words filed in the database; no cut-off is given here.
Experiments:
[1] = test system: Mus musculus; assay: Anti-alzheimer activity against APP/PS1 mouse model assessed as upregulation of ATG16L1 mRNA expression in brain at 10 mg/kg, ip administered for 30 days; assay type: functional, organism-based; details: time 30.0 day
[2] = test system: Mus musculus; assay: Anti-alzheimer activity against APP/PS1 mouse model assessed as upregulation of CTSF mRNA expression in brain at 10 mg/kg, ip administered for 30 days; assay type: functional, organism-based; details: time 30.0 day
[3] = test system: Mus musculus; assay: Anti-alzheimer activity against APP/PS1 mouse model assessed as reduction in amyloid beta plaque in cortex at 10 mg/kg, ip administered for 30 days; assay type: functional; set-up: scale not given: the % may be the effect or the level left; details: time 30 day
[4] = Half life in ICR mouse at 20 mg/kg, po measured upto 24 hrs by LC-MS/MS analysis; assay type: ADME, organism-based; details: in vivo
[5] = test system: HeLa; assay: Induction of cell cycle arrest in human HeLa cells assessed as effect on CDK4 level at 10 uM incubated for 12 hrs by qRT-PCR analysis; assay type: functional, cell-based
[6] = test system: HeLa; assay: Upregulation of ATG2A mRNA expression in TFEB knockout human HeLa cells at 10 uM incubated for 24 hrs by qRT-PCR analysis; assay type: functional, cell-based
[7] = Ratio of drug concentration in ICR mouse brain to plasma at 5 mg/kg, iv measured upto 24 hrs by LC-MS/MS analysis; assay type: ADME, organism-based; details: brain and plasma, read-out: BPR
[8] = test system: HeLa; assay: Upregulation of Atg16L1 mRNA expression in human HeLa cells at 10 uM incubated for 24 hrs by qRT-PCR analysis; assay type: functional, cell-based
[9] = test system: HeLa; assay: Upregulation of p62 mRNA expression in TFEB knockout human HeLa cells at 10 uM incubated for 24 hrs by qRT-PCR analysis; assay type: functional, cell-based
[10] = Acute toxicity in C57BL/6J mouse assessed as brain damage at 50 mg/kg, ip measured upto 14 days by H and E staining based analysis; assay type: organism-based; details: in vivo, 336 h, time < 14 day
[11] = test system: HeLa; assay: Upregulation of LC3B mRNA expression in human HeLa cells at 10 uM incubated for 24 hrs by qRT-PCR analysis; assay type: functional, cell-based
[12] = test system: HeLa; assay: Upregulation of LC3B mRNA expression in TFEB knockout human HeLa cells at 10 uM incubated for 24 hrs by qRT-PCR analysis; assay type: functional, cell-based
[13] = Bioavailability in ICR mouse at 5 mg/kg, ip measured upto 24 hrs by LC-MS/MS analysis; assay type: ADME, organism-based; details: in vivo
[14] = Induction of TFEB nuclear translocation in human HeLa cells expressing EGFP at 30 uM measured at 3 hrs by fluorescence microscopic analysis; assay type: functional
[15] = test system: HeLa; assay: Upregulation of UVRAG mRNA expression in human HeLa cells at 10 uM incubated for 24 hrs by qRT-PCR analysis; assay type: functional, cell-based
[16] = Cmax in ICR mouse at 20 mg/kg, po measured upto 24 hrs by LC-MS/MS analysis; assay type: ADME, organism-based; details: in vivo
[17] = target: Cyclin-dependent kinase 9 (Homo sapiens) (UniProt P50750); assay: Inhibition of CDK9 in human SH-SY5Y cells assessed as decrease in Rpb1 phosphorylation at 10 uM incubated for 6 hrs by immunoblotting analysis; assay type: cell-based
[18] = Cmax in ICR mouse at 10 mg/kg, ip measured upto 24 hrs by LC-MS/MS analysis; assay type: ADME, organism-based; details: in vivo
[19] = test system: Mus musculus; assay: Anti-alzheimer activity against APP/PS1 mouse model assessed as reduction in amyloid beta 42 plaque in hippocampus at 10 mg/kg, ip administered for 30 days; assay type: functional; set-up: scale not given: the % may be the effect or the level left; details: time 30 day
[20] = test system: HeLa; assay: Upregulation of OPTN mRNA expression in TFEB knockout human HeLa cells at 10 uM incubated for 24 hrs by qRT-PCR analysis; assay type: functional, cell-based
[21] = test system: HeLa; assay: Cytotoxicity against human HeLa cells assessed as effect on cell viability at 10 uM incubated for 24 hrs; assay type: functional, cell-based
[22] = Clearance in ICR mouse at 5 mg/kg, iv measured upto 24 hrs by LC-MS/MS analysis; assay type: ADME, organism-based; details: in vivo
[23] = test system: HeLa; assay: Induction of cell cycle arrest in human HeLa cells assessed as effect on p21 level at 10 uM incubated for 12 hrs by qRT-PCR analysis; assay type: functional, cell-based
[24] = test system: HeLa; assay: Upregulation of Atg16L1 mRNA expression in TFEB knockout human HeLa cells at 10 uM incubated for 24 hrs by qRT-PCR analysis; assay type: functional, cell-based
[25] = test system: Primary neocortical neuron; assay: Cytotoxicity against mouse Primary neocortical neuron cells assessed as effect on cell viability at 10 uM incubated for 24 hrs; assay type: functional, cell-based
[26] = test system: HeLa; assay: Upregulation of LAMP1 mRNA expression in human HeLa cells at 10 uM incubated for 24 hrs by qRT-PCR analysis; assay type: functional, cell-based
[27] = Tmax in ICR mouse at 20 mg/kg, po measured upto 24 hrs by LC-MS/MS analysis; assay type: ADME, organism-based; details: in vivo
[28] = test system: HeLa; assay: Upregulation of CTSF mRNA expression in human HeLa cells at 10 uM incubated for 24 hrs by qRT-PCR analysis; assay type: functional, cell-based
[29] = test system: Mus musculus; assay: Anti-alzheimer activity against APP/PS1 mouse model assessed as reduction in amyloid beta plaque in hippocampus at 10 mg/kg, ip administered for 30 days; assay type: functional; set-up: scale not given: the % may be the effect or the level left; details: time 30 day
[30] = Induction of TFEB nuclear translocation in human HeLa cells expressing EGFP at 30 uM measured at 6 hrs by fluorescence microscopic analysis; assay type: functional
[31] = test system: HeLa; assay: Induction of cell cycle arrest in human HeLa cells assessed as effect on CDK7 level at 10 uM incubated for 12 hrs by qRT-PCR analysis; assay type: functional, cell-based
[32] = AUC (0 to t) in ICR mouse at 20 mg/kg, po measured upto 24 hrs by LC-MS/MS analysis; assay type: ADME, organism-based; details: in vivo
[33] = test system: HeLa; assay: Upregulation of GLA mRNA expression in TFEB knockout human HeLa cells at 10 uM incubated for 24 hrs by qRT-PCR analysis; assay type: functional, cell-based
[34] = AUC (0 to t) in ICR mouse at 10 mg/kg, ip measured upto 24 hrs by LC-MS/MS analysis; assay type: ADME, organism-based; details: in vivo
[35] = test system: Mus musculus; assay: Anti-alzheimer activity against APP/PS1 mouse model assessed as increase in time spent in the target quadrant at 10 mg/kg, ip administered for 30 days by Morris water maze test; assay type: functional, organism-based; details: time 30.0 day
[36] = test system: Mus musculus; assay: Anti-alzheimer activity against APP/PS1 mouse model assessed as reduction in time to locate hidden platform at 10 mg/kg, ip administered for 30 days by Morris water maze test; assay type: functional, organism-based; details: time 30.0 day
[37] = Volume of distribution at steady state in ICR mouse measured upto 24 hrs by LC-MS/MS analysis; assay type: ADME; details: in vivo, read-out: Vdss
[38] = test system: HeLa; assay: Upregulation of LAMP1 mRNA expression in TFEB knockout human HeLa cells at 10 uM incubated for 24 hrs by qRT-PCR analysis; assay type: functional, cell-based
[39] = Ratio of drug concentration in ICR mouse brain to plasma at 10 mg/kg, ip measured upto 24 hrs by LC-MS/MS analysis; assay type: ADME, organism-based; details: brain and plasma, read-out: BPR
[40] = test system: HeLa; assay: Upregulation of […] mRNA expression in human HeLa cells at 10 uM incubated for 24 hrs by qRT-PCR analysis; assay type: functional, cell-based
[41] = test system: HeLa; assay: Upregulation of CTSF mRNA expression in TFEB knockout human HeLa cells at 10 uM incubated for 24 hrs by qRT-PCR analysis; assay type: functional, cell-based

Cyclin-dependent kinase 9 (Homo sapiens), sequence (P50750 whole entry): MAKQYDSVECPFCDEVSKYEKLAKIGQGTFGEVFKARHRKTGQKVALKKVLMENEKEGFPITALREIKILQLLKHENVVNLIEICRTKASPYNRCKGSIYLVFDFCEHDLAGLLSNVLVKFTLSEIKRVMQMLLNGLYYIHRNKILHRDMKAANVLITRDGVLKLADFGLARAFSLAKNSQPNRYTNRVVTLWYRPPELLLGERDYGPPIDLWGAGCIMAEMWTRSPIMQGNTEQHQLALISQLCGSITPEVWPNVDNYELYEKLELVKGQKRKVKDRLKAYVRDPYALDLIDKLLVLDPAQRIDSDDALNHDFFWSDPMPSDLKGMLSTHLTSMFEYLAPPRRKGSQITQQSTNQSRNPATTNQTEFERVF

Q: Which Activity [1] does the source give for `Fc1ccc2[nH]cc(CCC3c4cc5c(cc4CCN3CC3CCOCC3)OCO5)c2c1` (configuration not stated) here?
A: Active

Q: What about the Activity [2] of the same compound?
A: Active

Q: What about the Activity [3] of the same compound?
A: 29.5%

Q: What about the half-life [4] of the same compound?
A: 2.37 h

Q: What about the Activity [5] of the same compound?
A: inactive

Q: And the Activity [6]?
A: Active

Q: And the Kp at 24 h [7]?
A: 6.9

Q: What about the Activity [8] of the same compound?
A: Active

Q: What about the Activity [9] of the same compound?
A: Active

Q: And the Activity [10]?
A: Non-Toxic

Q: And the Activity [11]?
A: Active

Q: What about the Activity [12] of the same compound?
A: Active

Q: What about the bioavailability [13] of the same compound?
A: 25.7%

Q: And the Activity [14]?
A: 94%

Q: And the Activity [15]?
A: Active

Q: What about the Cmax [16] of the same compound?
A: 9.49 ng/mL

Q: What about the inhibition [17] of the same compound?
A: Active

Q: And the Cmax [18]?
A: 146 ng/mL

Q: And the Activity [19]?
A: 25.4%

Q: What about the Activity [20] of the same compound?
A: Active

Q: What about the Activity [21] of the same compound?
A: Active

Q: What about the clearance [22] of the same compound?
A: 204 mL/min/kg

Q: What about the Activity [23] of the same compound?
A: inactive

Q: What about the Activity [24] of the same compound?
A: Active

Q: What about the Activity [25] of the same compound?
A: Active

Q: And the Activity [26]?
A: Active

Q: And the Tmax [27]?
A: 0.42 h

Q: What about the Activity [28] of the same compound?
A: Active

Q: What about the Activity [29] of the same compound?
A: 69.8%

Q: And the Activity [30]?
A: 98%

Q: What about the Activity [31] of the same compound?
A: inactive

Q: And the AUCt ([32]; po, 20 mg/kg, 24 h)?
A: 17.4 ng·h/mL

Q: What about the Activity [33] of the same compound?
A: Active

Q: And the AUC(0-t) at 24 h [34]?
A: 210 ng·h/mL

Q: What about the Activity [35] of the same compound?
A: Active

Q: And the Activity [36]?
A: Active

Q: What about the Vd [37] of the same compound?
A: 36.8 L/kg

Q: What about the Activity [38] of the same compound?
A: Active

Q: And the Kp at 24 h [39]?
A: 5.2

Q: What about the Activity [40] of the same compound?
A: Active

Q: What about the Activity [41] of the same compound?
A: Active

Q: Which results are given for `c1ccc2c(CCC3NCCc4cc5c(cc43)OCO5)c[nH]c2c1` (configuration not stated)?
A: Activity [1]: Active; Activity [2]: Active; Activity [3]: 26.5%; half-life [4]: 3.1 h; Activity [5]: inactive; Activity [6]: Active; Kp at 24 h [7]: 2.8; Activity [8]: Active; Activity [9]: Active; Activity [10]: Non-Toxic; Activity [11]: Active; Activity [12]: Active; bioavailability [13]: 115%; Activity [14]: 97%; Activity [15]: Active; Cmax [16]: 4030 ng/mL; inhibition [17]: Active; Cmax [18]: 4720 ng/mL; Activity [19]: 43.6%; Activity [20]: Active; Activity [21]: Active; clearance [22]: 30.3 mL/min/kg; Activity [23]: inactive; Activity [24]: Active; Activity [25]: Active; Activity [26]: Active; Tmax [27]: 0.58 h; Activity [28]: Active; Activity [29]: 67.5%; Activity [30]: 98%; Activity [31]: inactive; AUC(0-t) at 24 h ([32]; ICR): 17100 ng·h/mL; Activity [33]: Active; AUC(0-t) at 24 h [34]: 7640 ng·h/mL; Activity [35]: Active; Activity [36]: Active; Vd [37]: 4.51 L/kg; Activity [38]: Active; Kp at 24 h [39]: 1.1; Activity [40]: Active; Activity [41]: Active
